Laboratory results: PMC9931769, “Bacterial origins of thymidylate metabolism in Asgard archaea and Eukarya” (Nature Communications, 2023)

How the values were obtained:
[1] = molecular target: T1, Psyn ThyX (Promethearchaeum syntrophicum, UniProt A0A5B9D7C8); assay: inhibition of NADPH oxidation, absorbance at […] nm; type: biochemical
T1 sequence (A0A5B9D7C8 1-298): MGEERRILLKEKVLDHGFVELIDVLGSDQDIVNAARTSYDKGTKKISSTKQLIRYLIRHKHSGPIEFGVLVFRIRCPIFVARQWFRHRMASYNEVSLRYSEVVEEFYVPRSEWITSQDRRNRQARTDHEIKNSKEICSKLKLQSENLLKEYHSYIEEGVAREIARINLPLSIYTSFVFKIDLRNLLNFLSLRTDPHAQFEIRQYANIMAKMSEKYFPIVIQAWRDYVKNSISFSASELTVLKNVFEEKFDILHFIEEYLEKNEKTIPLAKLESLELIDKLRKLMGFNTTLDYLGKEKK

[2] = substrate: O=c1ccn([C@H]2C[C@H](O)[C@@H](COP(=O)(O)O)O2)c(=O)[nH]1; assay: purified protein; type: biochemical, Promethearchaeum syntrophicum; conditions: 50 mM sodium phosphate pH 8, 300 mM NaCl, 2 mM MgCl2, 50 μM FAD, 750 μM NADPH, 0.4 μM enzyme, 25 °C

Nc1nc2c(c(=O)[nH]1)N1CN(c3ccc(C(=O)N[C@@H](CCC(=O)O)C(=O)O)cc3)C[C@H]1CN2 [CH2H4folate]
inhibition at 200 µM [1]: > 50%

Nc1nc2c(c(=O)[nH]1)N[C@@H](CNc1ccc(C(=O)N[C@@H](CCC(=O)O)C(=O)O)cc1)CN2 [H4folate]
inhibition at 200 µM [1]: > 50%

B1: Psyn ThyX (Promethearchaeum syntrophicum) (protein)
chain: T1 sequence (A0A5B9D7C8 1-298)
Km [2]: 0.235 ± 0.035 µM
